The structures appear in SMILES notation. Numbered stars: 1 amine (or outer) side, 2 acyl side, 3 side chain; on linkers, the order of the positions; unused ones are H or OH. Bridge positions count the residues as written; N and C are the ends. Square brackets hold non-standard residues; d marks the D form. Peptide text beside a SMILES is read from it. * marks the point of attachment. hPhe(3-Cl-4-CF3) = N[C@@H](CCc1ccc(C(F)(F)F)c(Cl)c1)C(=O)O; hPhe(3-F,4-CF3) = N[C@@H](CCc1ccc(C(F)(F)F)c(F)c1)C(=O)O; X49 = CN([C@@H](Cc1cccc(OC(F)(F)F)c1)C(=O)[*:2])[*:1]; NMePhe(4-Cl) = CN[C@@H](Cc1ccc(Cl)cc1)C(=O)O; NMePhe(4-F) = CN[C@@H](Cc1ccc(F)cc1)C(=O)O; NMeGly(cPent) = CN[C@H](C(=O)O)C1CCCC1; Phe(3-I) = N[C@@H](Cc1cccc(I)c1)C(=O)O; dβ3hPip = O=C(C[C@H]1CCCCN1[*:1])[*:2]; NMeCha = CN[C@@H](CC1CCCCC1)C(=O)O; NMeChg = CN[C@H](C(=O)O)C1CCCCC1; NMeD = CN[C@@H](CC(=O)O)C(=O)O; NMeL = CN[C@@H](CC(C)C)C(=O)O; NMehSer = CN[C@@H](CCO)C(=O)O; NMeV = CN[C@H](C(=O)O)C(C)C; d(β3hA) = C[C@@H](N)CC(=O)O; Iva = CC[C@](C)(N)C(=O)O; NMeA = CN[C@@H](C)C(=O)O; Nle = CCCC[C@H](N)C(=O)O; Piperidide = C1CCN(*)CC1; Ac5c = NC1(C(=O)O)CCCC1; Aze = O=C(O)[C@@H]1CCN1; Ac4c = NC1(C(=O)O)CCC1; Sar = CNCC(=O)O

The test system of the assay is Human pancreatic cancer cell line AsPC-1 (G12D mutation Kras). In words: AsPC-1 cell growth inhibition (AsPC-1 CGI). The assay is classed as cell-based. Particulars: read-out: AsPC-1 cell growth inhibition, 50% growth inhibitory concentration (IC50 value); 96 hours, CellTiter-Glo, values classified in ranges. (In general: ATP-based viability assays read luminescence as a measure of living cells.)
Experimental: Test compounds were serially dilated with dimethyl sulfoxide, and 200 nL was then dispensed to a U-bottom 96-well plate using Labcyte Echo. […] The cell suspension was dispensed to a. plate containing a test compound at 100 μL per well and incubated at 37° C. in a 5% carbon dioxide gas incubator. 96 hours later, 80 μL of CellTiter-Glo (Promega) was added to each well and fluorescence was measured.
`CC[C@H](C)[C@@H]1NC(=O)[C@H](CC(C)C)N(C)C(=O)C[C@@H](C)NC(=O)[C@H](CC(C)C)N(C)C(=O)C2(CCC2)NC(=O)[C@@H]2CCCN2C(=O)[C@H](CCc2ccc(C(F)(F)F)c(F)c2)NC(=O)CN(C)C(=O)[C@H](CC2CCCCC2)N(C)C(=O)CN(C)C(=O)CN(C)C1=O` [Compound 133] (cyclo([Ac4c][NMeL][d(β3hA)][NMeL]I[Sar][Sar][NMeCha][Sar][hPhe(3-F,4-CF3)]P)): the IC50 was greater than 500 nM.

In the case of `CC[C@H](C)[C@@H]1NC(=O)[C@H](C)N(C)C(=O)C[C@@H](C(=O)N2CCCCC2)N(C)C(=O)[C@H](C(C)C)N(C)C(=O)C2(CCCC2)NC(=O)[C@@H]2CCCN2C(=O)[C@H](CCc2ccc(C(F)(F)F)c(Cl)c2)NC(=O)[C@H]2CCCN2C(=O)[C@H](CC2CCCCC2)N(C)C(=O)CN(C)C(=O)CN(C)C1=O` [Compound 135] ([NMeA]I[Sar][Sar][NMeCha][dP][hPhe(3-Cl-4-CF3)]P[Ac5c][NMeV][NMeD]-Piperidide; lactam N-11), the IC50 was greater than 500 nM.

`CC[C@H](C)[C@@H]1NC(=O)[C@H](CC(C)C)N(C)C(=O)C[C@@H](C(=O)N2CCCCC2)N(C)C(=O)[C@H](CCOC)N(C)C(=O)C2(CCCC2)NC(=O)[C@@H]2CCCN2C(=O)[C@H](CCc2ccc(C(F)(F)F)c(Cl)c2)NC(=O)CN(C)C(=O)[C@H](CC2CCCCC2)N(C)C(=O)[C@@H]2CCN2C(=O)[C@H](C)N(C)C1=O` [Compound 141] ([NMeL]I[NMeA][Aze][NMeCha][Sar][hPhe(3-Cl-4-CF3)]P[Ac5c][NMehSer](Me)[NMeD]-Piperidide; lactam N-11): the IC50 was greater than 500 nM.

As for `CC[C@H](C)[C@@H]1NC(=O)[C@H](CC(C)C)N(C)C(=O)C[C@H]2CCCCN2C(=O)[C@H](C(C)C)N(C)C(=O)C2(CCCC2)NC(=O)[C@@H]2CCCN2C(=O)[C@H](CCc2ccc(C(F)(F)F)c(F)c2)NC(=O)CN(C)C(=O)[C@H](CC2CCCCC2)N(C)C(=O)CN(C)C(=O)CN(C)C1=O` [Compound 142] (cyclo([Ac5c][NMeV][dβ3hPip][NMeL]I[Sar][Sar][NMeCha][Sar][hPhe(3-F,4-CF3)]P)), the IC50 was greater than 500 nM.

Consider `CCCC[C@@H]1NC(=O)[C@H](Cc2cccc(I)c2)NC(=O)CN(C)C(=O)[C@H](Cc2ccc(Cl)cc2)N(C)C(=O)CN(C)C(=O)CN(C)C(=O)[C@H]([C@@H](C)CC)NC(=O)[C@H](CC(C)C)N(C)C(=O)C[C@@H](C(=O)N2CCCCC2)N(C)C(=O)[C@H](CC(C)C)NC(=O)[C@H](Cc2cccc(OC(F)(F)F)c2)N(C)C1=O` [Compound 143] ([NMeL]I[Sar][Sar][NMePhe(4-Cl)][Sar][Phe(3-I)][Nle][X49]L[NMeD]-Piperidide; lactam N-11), for which the IC50 is greater than 500 nM.

On to `CC[C@H](C)[C@@H]1NC(=O)[C@H](C)N(C)C(=O)C[C@@H](C)NC(=O)[C@H](C2CCCC2)N(C)C(=O)C2(CCCC2)NC(=O)[C@@H]2CCCN2C(=O)[C@H](CCc2ccc(C(F)(F)F)c(Cl)c2)NC(=O)CN(C)C(=O)[C@H](Cc2ccc(F)cc2)N(C)C(=O)[C@@H]2CCCN2C(=O)CN(C)C1=O` [Compound 146] (cyclo([Ac5c][NMeGly(cPent)][d(β3hA)][NMeA]I[Sar]P[NMePhe(4-F)][Sar][hPhe(3-Cl-4-CF3)]P)), for which the IC50 was greater than 500 nM.

On to `COC[C@@H]1NC(=O)[C@H](CC(C)C)N(C)C(=O)C[C@@H](C(=O)N2CCCCC2)N(C)C(=O)[C@H](C2CCCCC2)N(C)C(=O)C2(CCCC2)NC(=O)[C@@H]2CCCN2C(=O)[C@H](CCc2ccc(C(F)(F)F)c(Cl)c2)NC(=O)CN(C)C(=O)[C@H](CC2CCCCC2)N(C)C(=O)CN(C)C(=O)CN(C)C1=O` [Compound 148] ([NMeL]S(Me)[Sar][Sar][NMeCha][Sar][hPhe(3-Cl-4-CF3)]P[Ac5c][NMeChg][NMeD]-Piperidide; lactam N-11), for which the IC50 is greater than 500 nM.

In the case of `CC[C@H](C)[C@@H]1NC(=O)[C@H](CC(C)C)N(C)C(=O)C[C@@H](C)NC(=O)[C@H](C(C)C)N(C)C(=O)[C@](C)(CC)NC(=O)[C@@H]2CCCN2C(=O)[C@H](CCc2ccc(C(F)(F)F)c(Cl)c2)NC(=O)CN(C)C(=O)[C@H](CC2CCCCC2)N(C)C(=O)CN(C)C(=O)CN(C)C1=O` [Compound 149] (cyclo(I[Sar][Sar][NMeCha][Sar][hPhe(3-Cl-4-CF3)]P[Iva][NMeV][d(β3hA)][NMeL])), the IC50 is greater than 500 nM.

In the case of `CC[C@H](C)[C@@H]1NC(=O)[C@H](C(C)C)N(C)C(=O)C[C@@H](C)NC(=O)[C@H](CC(C)C)N(C)C(=O)C2(CCCC2)NC(=O)[C@H](CC(C)C)N(C)C(=O)[C@H](CCc2ccc(C(F)(F)F)c(Cl)c2)NC(=O)CN(C)C(=O)[C@H](Cc2ccc(Cl)cc2)N(C)C(=O)[C@@H]2CCN2C(=O)CN(C)C1=O` [Compound 158] (cyclo([Ac5c][NMeL][d(β3hA)][NMeV]I[Sar][Aze][NMePhe(4-Cl)][Sar][hPhe(3-Cl-4-CF3)][NMeL])), the IC50 is greater than 500 nM.

For `CC[C@H](C)[C@@H]1NC(=O)[C@H](CC(C)C)N(C)C(=O)C[C@@H](C(=O)N2CCCCC2)N(C)C(=O)[C@H](C2CCCCC2)N(C)C(=O)C2(CCCC2)NC(=O)[C@@H]2CCCN2C(=O)[C@H](CCc2ccc(C(F)(F)F)c(Cl)c2)NC(=O)CN(C)C(=O)[C@H](CCOC)N(C)C(=O)CN(C)C(=O)CN(C)C1=O` [Compound 159] ([NMeL]I[Sar][Sar][NMehSer](Me)[Sar][hPhe(3-Cl-4-CF3)]P[Ac5c][NMeChg][NMeD]-Piperidide; lactam N-11), the IC50 was greater than 500 nM.

The record behind these values is US20240148821A1, “PHARMACEUTICAL USE OF CYCLIC PEPTIDE COMPOUND” (CHUGAI SEIYAKU KABUSHIKI KAISHA, priority 2021, published 2024).
